Experimental data from article PMC12547752, “Silodosin as a Novel Inhibitor of Acetylcholinesterase, Butyrylcholinesterase, and BETA-Secretase 1: In Vitro and In Silico Studies” (ACS Omega, 2025).

Molecular target: T1, butyrylcholinesterase (BuChE) (Equus caballus, UniProt P81908)
T1 construct: gene BCHE
Test: Ellman colorimetric assay with equine serum BuChE, concentration-response
Assay type: biochemical

T1 sequence (P81908 whole entry): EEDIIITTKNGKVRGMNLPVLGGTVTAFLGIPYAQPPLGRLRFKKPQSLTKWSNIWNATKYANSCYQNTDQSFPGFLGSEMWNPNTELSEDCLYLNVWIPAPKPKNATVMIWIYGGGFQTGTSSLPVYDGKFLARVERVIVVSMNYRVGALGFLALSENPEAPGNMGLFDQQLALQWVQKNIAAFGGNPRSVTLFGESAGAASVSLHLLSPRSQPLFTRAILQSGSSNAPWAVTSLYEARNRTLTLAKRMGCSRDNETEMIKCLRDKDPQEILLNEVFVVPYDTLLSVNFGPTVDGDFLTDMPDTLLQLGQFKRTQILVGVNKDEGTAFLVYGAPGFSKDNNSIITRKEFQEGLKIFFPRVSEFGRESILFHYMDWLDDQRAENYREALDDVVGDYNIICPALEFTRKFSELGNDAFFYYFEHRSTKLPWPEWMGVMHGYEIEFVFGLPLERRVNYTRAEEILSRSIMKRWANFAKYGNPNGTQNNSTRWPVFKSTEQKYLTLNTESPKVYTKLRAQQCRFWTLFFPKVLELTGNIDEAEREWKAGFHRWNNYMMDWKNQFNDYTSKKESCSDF

SMILES: C[C@H](Cc1cc2c(c(C(N)=O)c1)N(CCCO)CC2)NCCOc1ccccc1OCC(F)(F)F [silodosin]
- IC50: 3.02 ± 0.05 µM
